Structures can show the parent of a compound that is named as a salt.
Experiments:
Format in all cases: biochemical
α-D-glucosidase (Yeast) = biological target: T1, α-D-glucosidase (Yeast) (Saccharomyces cerevisiae, UniProt P53341); test: Glycosidase assay, α-D-glucosidase (Yeast)
T1 construct: purchased Sigma-Aldrich
Description: (§1) The assays used p-nitrophenyl-substrates and commercial enzymes purchased from Sigma-Aldrich. Enzymes were assayed at 27° C. in 0.1M citric acid/0.2M disodium hydrogen phosphate buffers at the optimum pH for the enzyme. The incubation mixture consisted of 10 μl enzyme solution, 10 μl of 10 mg/ml aqueous solution of extract and 50 μl of the appropriate 5 mM p-nitrophenyl substrate made up in buffer at the optimum pH for the enzyme. The reactions were stopped by addition of 70 μl 0.4M glycine (pH 10.4) during the exponential phase of the reaction, which had been determined at the beginning using uninhibited assays in which water replaced mulberry fractions. Final absorbances were read at 405 nm using a Versamax microplate reader (Molecular Devices). Assays were carried out in triplicate, and the values given are means of the three replicates per assay. Results are expressed as % inhibition.
(§2) Substrates are 10 mM p-nitrophenyl-glycopyranosides. Enzymes are purchased from Sigma and run at the pH optima

[1] = system: α-D-glucosidase (Bacillus); test: Glycosidase assay, α-D-glucosidase (Bacillus)
Description: as §1, §2

α-D-glucosidase (rice) = biological target: T2, α-D-glucosidase (rice) (Oryza sativa subsp. japonica, UniProt Q653V7); test: Glycosidase assay, α-D-glucosidase (rice)
T2 construct: purchased Sigma-Aldrich
T2 sequence (Q653V7 34-885): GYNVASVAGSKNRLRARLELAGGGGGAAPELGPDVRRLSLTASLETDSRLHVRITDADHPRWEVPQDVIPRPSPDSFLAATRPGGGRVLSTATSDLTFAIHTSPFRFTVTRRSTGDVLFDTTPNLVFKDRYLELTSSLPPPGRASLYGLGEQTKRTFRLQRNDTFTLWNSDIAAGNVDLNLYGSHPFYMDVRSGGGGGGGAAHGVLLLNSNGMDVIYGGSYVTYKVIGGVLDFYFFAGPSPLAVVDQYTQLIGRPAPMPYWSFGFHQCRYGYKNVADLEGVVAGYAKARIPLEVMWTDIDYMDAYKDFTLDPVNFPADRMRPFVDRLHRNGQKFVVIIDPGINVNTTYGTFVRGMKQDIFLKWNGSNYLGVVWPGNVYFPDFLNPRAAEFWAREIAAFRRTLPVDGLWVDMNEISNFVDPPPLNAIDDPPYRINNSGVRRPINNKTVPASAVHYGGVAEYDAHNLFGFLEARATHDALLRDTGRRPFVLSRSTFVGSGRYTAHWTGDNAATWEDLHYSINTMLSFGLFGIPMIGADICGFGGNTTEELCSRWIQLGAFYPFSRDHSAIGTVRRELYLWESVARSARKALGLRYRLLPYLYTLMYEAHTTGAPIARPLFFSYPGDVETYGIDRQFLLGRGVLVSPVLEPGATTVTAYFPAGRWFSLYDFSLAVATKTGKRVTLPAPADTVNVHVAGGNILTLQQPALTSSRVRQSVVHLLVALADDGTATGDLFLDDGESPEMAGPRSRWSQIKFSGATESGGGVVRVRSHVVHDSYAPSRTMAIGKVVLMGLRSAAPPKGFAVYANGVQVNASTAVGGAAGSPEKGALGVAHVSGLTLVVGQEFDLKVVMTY
Description: as §1, §2

β-D-glucosidase (almond) = test: Glycosidase assay, β-D-glucosidase (almond)
Description: as §1, §2

[2] = biological target: T3, α-D-galactosidase (green coffee bean) (Coffea arabica, UniProt Q42656); test: Glycosidase assay, α-D-galactosidase (green coffee bean); settings: % inhibition; for α-D-galactosidase coffee bean: Table 6, concentration not given (method: 10 mg/ml solution)
T3 construct: purchased Sigma-Aldrich
T3 sequence (Q42656 16-378): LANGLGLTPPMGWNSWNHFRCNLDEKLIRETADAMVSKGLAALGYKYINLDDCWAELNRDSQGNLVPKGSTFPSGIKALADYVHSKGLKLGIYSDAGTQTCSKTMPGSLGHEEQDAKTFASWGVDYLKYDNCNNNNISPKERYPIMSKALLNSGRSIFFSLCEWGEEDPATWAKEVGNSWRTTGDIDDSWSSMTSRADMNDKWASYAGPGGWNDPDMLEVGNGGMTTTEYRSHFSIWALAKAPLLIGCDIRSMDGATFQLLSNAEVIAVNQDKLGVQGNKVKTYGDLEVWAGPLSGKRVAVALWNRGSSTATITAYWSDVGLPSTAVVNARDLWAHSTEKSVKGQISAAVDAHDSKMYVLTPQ
Description: as §1, §2

[3] = biological target: T4, β-D-galactosidase (bovine) (Bos taurus, UniProt Q58D55); test: Glycosidase assay, β-D-galactosidase (bovine)
T4 construct: purchased Sigma-Aldrich
T4 sequence (Q58D55 28-653): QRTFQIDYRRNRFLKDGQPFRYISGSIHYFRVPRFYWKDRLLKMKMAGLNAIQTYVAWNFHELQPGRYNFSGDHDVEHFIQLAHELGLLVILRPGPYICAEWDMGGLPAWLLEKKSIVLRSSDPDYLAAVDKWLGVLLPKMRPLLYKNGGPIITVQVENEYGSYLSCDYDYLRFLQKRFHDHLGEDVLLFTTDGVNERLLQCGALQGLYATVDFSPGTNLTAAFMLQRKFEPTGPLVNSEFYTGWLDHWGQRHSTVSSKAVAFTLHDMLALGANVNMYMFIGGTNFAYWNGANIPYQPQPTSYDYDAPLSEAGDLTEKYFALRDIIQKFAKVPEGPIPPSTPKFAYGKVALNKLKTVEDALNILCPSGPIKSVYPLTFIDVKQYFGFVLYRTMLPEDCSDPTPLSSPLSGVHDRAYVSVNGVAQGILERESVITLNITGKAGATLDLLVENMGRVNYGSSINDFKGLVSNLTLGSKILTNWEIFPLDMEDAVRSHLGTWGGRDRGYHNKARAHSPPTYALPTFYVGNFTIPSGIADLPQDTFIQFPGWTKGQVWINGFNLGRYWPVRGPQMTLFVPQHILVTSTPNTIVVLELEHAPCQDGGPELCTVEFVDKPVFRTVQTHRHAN
Description: as §1, §2

[4] = biological target: T5, α-D-mannosidase (Jack bean) (Canavalia ensiformis, UniProt C0HJB3); test: Glycosidase assay, α-D-mannosidase (Jack bean); settings: % inhibition
T5 construct: purchased Sigma-Aldrich
T5 sequence (C0HJB3 1-562 limits assumed): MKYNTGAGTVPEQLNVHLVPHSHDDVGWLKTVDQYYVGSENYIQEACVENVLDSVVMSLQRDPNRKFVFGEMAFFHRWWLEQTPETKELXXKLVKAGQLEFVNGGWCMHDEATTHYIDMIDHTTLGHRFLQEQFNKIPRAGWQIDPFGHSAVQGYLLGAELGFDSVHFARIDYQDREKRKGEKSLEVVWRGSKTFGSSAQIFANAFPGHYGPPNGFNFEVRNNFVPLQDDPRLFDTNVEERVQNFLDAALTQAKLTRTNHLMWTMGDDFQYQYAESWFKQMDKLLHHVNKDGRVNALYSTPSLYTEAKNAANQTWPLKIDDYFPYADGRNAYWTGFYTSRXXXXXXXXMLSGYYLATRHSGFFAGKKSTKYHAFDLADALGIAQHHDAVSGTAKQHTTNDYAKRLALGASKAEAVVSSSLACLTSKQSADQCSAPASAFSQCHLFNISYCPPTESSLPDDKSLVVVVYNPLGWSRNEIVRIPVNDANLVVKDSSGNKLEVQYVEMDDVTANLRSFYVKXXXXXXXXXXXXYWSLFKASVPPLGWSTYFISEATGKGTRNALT
Description: as §1, with “The reactions were stopped by addition of 70 μl 0.4M glycine (pH 10.4) during the exponential phase of the reaction, which had been determined at the beginning using uninhibited assays in which water replaced mulberry fractions.” left out
as §2

[5] = system: β-D-mannosidase Cellulomonas fimi; test: Glycosidase assay, β-D-mannosidase (Cellulomonas fimi); settings: % inhibition; for β-D-mannosidase Cellulomonas fimi: Table 6, concentration not given (method: 10 mg/ml solution)
Description: as §1

[6] = system: naringinase (P. decumbens); test: Glycosidase assay, naringinase (P. decumbens); settings: % inhibition
Description: as §1, §2

[7] = system: N-acetyl-β-D-gluc (Bovine kidney); test: Glycosidase assay, N-acetyl-β-D-gluc (Bovine kidney)
Description: as §1, §2

[8] = system: N-acetyl-β-D-gluc (Jack bean); test: Glycosidase assay, N-acetyl-β-D-gluc (Jack bean)
Description: as §1, §2

[9] = biological target: T6, amyloglucosidase (A. niger) (Aspergillus niger, UniProt P69328); test: Glycosidase assay, amyloglucosidase (A. niger); settings: % inhibition; for amyloglucosidase A. niger: Table 6, concentration not given (method: 10 mg/ml solution)
T6 construct: purchased Sigma-Aldrich
T6 sequence (P69328 25-640): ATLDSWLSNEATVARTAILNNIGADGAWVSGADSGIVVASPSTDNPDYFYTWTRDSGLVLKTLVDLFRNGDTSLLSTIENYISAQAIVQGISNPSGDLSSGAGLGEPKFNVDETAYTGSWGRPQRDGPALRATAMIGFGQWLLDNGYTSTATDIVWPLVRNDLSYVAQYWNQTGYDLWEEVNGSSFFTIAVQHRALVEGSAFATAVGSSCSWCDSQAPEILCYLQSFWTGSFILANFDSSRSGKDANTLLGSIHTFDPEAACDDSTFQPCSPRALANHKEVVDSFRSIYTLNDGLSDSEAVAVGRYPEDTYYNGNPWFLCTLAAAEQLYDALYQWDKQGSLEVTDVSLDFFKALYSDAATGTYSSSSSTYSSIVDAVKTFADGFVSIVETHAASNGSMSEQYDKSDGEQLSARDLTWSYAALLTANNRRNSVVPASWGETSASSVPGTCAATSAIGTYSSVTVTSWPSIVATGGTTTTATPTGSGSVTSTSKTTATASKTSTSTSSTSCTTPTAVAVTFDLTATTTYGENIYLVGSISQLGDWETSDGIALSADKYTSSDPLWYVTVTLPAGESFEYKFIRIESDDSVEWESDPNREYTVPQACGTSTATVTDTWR
Description: as §1, §2

[10] = biological target: T7, β-glucuronidase (bovine liver) (Bos taurus, UniProt A3KMY8); test: Glycosidase assay, β-glucuronidase (bovine liver); settings: Table 6; % inhibition; concentration not given (method: 10 mg/ml solution)
T7 construct: purchased Sigma-Aldrich; host or cells: bovine liver
T7 sequence (A3KMY8 1-652): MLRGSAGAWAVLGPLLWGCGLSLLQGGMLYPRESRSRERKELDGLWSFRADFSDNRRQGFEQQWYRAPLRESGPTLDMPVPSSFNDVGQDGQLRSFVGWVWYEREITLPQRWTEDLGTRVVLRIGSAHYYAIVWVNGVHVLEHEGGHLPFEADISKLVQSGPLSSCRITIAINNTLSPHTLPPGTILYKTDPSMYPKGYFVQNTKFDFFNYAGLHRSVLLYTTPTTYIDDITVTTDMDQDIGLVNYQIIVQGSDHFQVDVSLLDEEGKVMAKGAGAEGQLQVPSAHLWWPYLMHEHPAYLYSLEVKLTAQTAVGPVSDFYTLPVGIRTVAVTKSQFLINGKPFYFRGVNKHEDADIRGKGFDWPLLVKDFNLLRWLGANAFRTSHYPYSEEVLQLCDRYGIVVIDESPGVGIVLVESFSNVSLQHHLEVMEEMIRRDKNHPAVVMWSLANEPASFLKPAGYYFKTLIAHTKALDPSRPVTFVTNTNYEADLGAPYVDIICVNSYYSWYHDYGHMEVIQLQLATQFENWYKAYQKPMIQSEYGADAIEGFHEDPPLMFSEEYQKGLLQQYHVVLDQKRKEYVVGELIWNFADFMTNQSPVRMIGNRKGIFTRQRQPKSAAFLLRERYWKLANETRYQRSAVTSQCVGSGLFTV
Description: as §1, §2

glycogen phosphorylase = test: Glycogen phosphorylase assay; settings: for GP Inhibition (%): at 400 μM; for glycogen phosphorylase inhibition: words, no concentration
α-L-fucosidase (bovine) = biological target: T8, α-L-fucosidase (bovine) (Bos taurus, UniProt Q2KIM0); test: Glycosidase assay, α-L-fucosidase (bovine); settings: Table 16; % inhibition; concentration not given
T8 construct: purchased Sigma-Aldrich
T8 sequence (Q2KIM0 23-468): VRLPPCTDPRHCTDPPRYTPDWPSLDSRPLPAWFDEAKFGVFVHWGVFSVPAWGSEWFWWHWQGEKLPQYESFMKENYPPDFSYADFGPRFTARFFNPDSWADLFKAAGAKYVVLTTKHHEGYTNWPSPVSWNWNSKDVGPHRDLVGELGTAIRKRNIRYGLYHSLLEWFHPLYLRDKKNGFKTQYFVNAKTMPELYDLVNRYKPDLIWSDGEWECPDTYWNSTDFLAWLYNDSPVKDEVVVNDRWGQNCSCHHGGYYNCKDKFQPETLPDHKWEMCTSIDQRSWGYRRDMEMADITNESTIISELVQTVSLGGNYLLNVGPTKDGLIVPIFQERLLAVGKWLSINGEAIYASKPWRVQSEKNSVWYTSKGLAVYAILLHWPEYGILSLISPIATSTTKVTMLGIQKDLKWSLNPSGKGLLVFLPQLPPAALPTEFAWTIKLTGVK
Description: as §1

β-D-glucosidase (yeast) = test: Glycosidase assay, β-D-glucosidase (yeast); settings: Table 16; % inhibition; concentration not given
Description: as §1

[11] = Table 6, % inhibition, concentration not given (method: 10 mg/ml solution)
[12] = Table 6, concentration not given (method: 10 mg/ml solution)
[13] = Table 16, % inhibition, concentration not given
[14] = Table 16, concentration not given
[15] = Table 9, sugar fractions, 10 mM p-nitrophenyl substrate, concentration given only for sucrose (10 mg/ml)

T1 sequence (P53341 whole entry): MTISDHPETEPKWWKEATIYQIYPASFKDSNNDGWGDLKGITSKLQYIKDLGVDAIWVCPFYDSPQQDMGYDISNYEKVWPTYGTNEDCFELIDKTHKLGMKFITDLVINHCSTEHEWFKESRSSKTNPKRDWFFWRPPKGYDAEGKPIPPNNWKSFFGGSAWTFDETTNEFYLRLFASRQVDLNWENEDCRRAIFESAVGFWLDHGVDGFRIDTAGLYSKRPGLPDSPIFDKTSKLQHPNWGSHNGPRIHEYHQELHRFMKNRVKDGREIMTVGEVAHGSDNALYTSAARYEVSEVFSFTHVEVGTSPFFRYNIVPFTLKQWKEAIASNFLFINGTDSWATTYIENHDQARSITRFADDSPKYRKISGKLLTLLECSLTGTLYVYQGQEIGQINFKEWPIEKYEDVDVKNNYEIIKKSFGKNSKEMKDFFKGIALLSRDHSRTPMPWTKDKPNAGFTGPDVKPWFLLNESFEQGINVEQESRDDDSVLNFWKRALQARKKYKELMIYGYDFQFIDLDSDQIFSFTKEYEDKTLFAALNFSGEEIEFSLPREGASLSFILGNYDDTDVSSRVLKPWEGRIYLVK

Row | Compound | α-D-glucosidase (Yeast) (α-D-glucosidase (Yeast); [11]) [%] | α-D-glucosidase (Bacillus) [1, 11] [%] | α-D-glucosidase (Rice) (α-D-glucosidase (rice); [11]) [%] | β-D-glucosidase almond (β-D-glucosidase (almond); [11]) [%] | α-D-galactosidase coffee bean [2] [%] | β-D-galactosidase (Bovine) [3, 11] [%] | α-D-mannosidase (Jack bean) [4, 12] [%] | β-D-mannosidase Cellulomonas fimi [5] [%] | Naringinase (P. decumbens) [6, 12] [%] | N-acetyl-β-D-gluc (Bovine kidney) [7, 11] [%] | N-acetyl-β-D-gluc Jack bean [8, 11] [%] | amyloglucosidase A. niger [9] [%] | β-glucuronidase bovine liver [10] [%] | GP Inhibition (%) (glycogen phosphorylase) | glycogen phosphorylase inhibition (glycogen phosphorylase) | further results
1 | C[n+]1cc(C(=O)[O-])ccc1O [6OH trig, 6-hydroxytrigonelline] | 0 | −36 | 0 | 0 | −16 | 8 | 0 | 0 | 0 | 12 | −11 | 0 | 0 | 11.9 | – | –
2 | OC[C@H]1NC[C@@H](O)[C@@H]1O [DAB, 1,4-dideoxy-1,4-imino-D-arabinitol] | – | – | – | – | – | – | – | – | – | – | – | – | – | – | – | α-D-glucosidase (Yeast) (α-D-glucosidase (Yeast); [13]): 100%; α-D-glucosidase (Bacillus) [1, 13]: 93%; α-D-glucosidase (Rice) (α-D-glucosidase (rice); [13]): 100%; α-D-galactosidase (Green coffee beans) [2, 14]: 7%; β-D-galactosidase (Bovine) [3, 13]: 100%; α-L-fucosidase (Bovine) (α-L-fucosidase (bovine)): 5%; α-D-mannosidase (Jack bean) [4, 14]: 3%; β-D-mannosidase (C. fimi) [5, 14]: 95%; Naringinase (P. decumbens) [6, 14]: 3%; N-acetyl-β-D-gluc (Bovine kidney) [7, 13]: −8%; Amyloglucosidase [9, 14]: 47%; β-D-glucosidase (yeast) (β-D-glucosidase (yeast)): 100%
3 | O=C(O)[C@@H]1CC[C@@H](O)CN1 [compound 900439] | 0 | 0 | 0 | 0 | −6 | 0 | 0 | 0 | −6 | 9 | 8 | 0 | 0 | – | – | –
4 | O=C(O)[C@@H]1CC[C@@H](O)CN1 [drawing 7] | – | – | – | – | – | – | – | – | – | – | – | – | – | 0 | – | –
5 | OC[C@H]1NCC[C@@H](O)[C@@H]1O [fagomine, Fagomine] | – | – | – | – | – | – | – | – | – | – | – | – | – | – | do not inhibit | –
6 | OC[C@H]1O[C@@](CO)(O[C@H]2O[C@H](CO)[C@@H](O)[C@H](O)[C@H]2O)[C@@H](O)[C@@H]1O [sucrose] | – | – | – | – | – | – | – | – | – | – | – | – | – | – | do not inhibit | α-D-glucosidase (Yeast) (α-D-glucosidase (Yeast); [15]): 0 % inhibition; α-D-glucosidase (Bacillus) [1, 15]: −7 % inhibition; α-D-glucosidase (Rice) (α-D-glucosidase (rice); [15]): 0 % inhibition; β-D-glucosidase almond (β-D-glucosidase (almond); [15]): 0 % inhibition; β-D-galactosidase (Bovine) [3, 15]: 0 % inhibition; N-acetyl-β-D-gluc (Bovine kidney) ([7]; Table 9, sucrose 10 mg/ml): 0 % inhibition; N-acetyl-β-D-gluc Jack bean [8, 15]: 0 % inhibition
7 | C[n+]1cccc(C(=O)[O-])c1 [trigonellin HCl, trigonelline] | 0 | −12 | 0 | 0 | 0 | 0 | 0 | 0 | 0 | −8 | 0 | 0 | 0 | 6.9 | not greatly inhibitory | –
